Like-named read-outs stand apart in the source and are kept apart here.
Assays:
[1] = molecular target: κ receptor (Cavia porcellus, UniProt P41144); assay: κ receptor radioligand binding assay with [3H]U-69,593, guinea pig brain membranes
[2] = molecular target: T1, μ receptor (Cavia porcellus, UniProt A0ACM8Q262); assay: μ receptor radioligand binding assay with [3H]DAMGO, guinea pig brain membranes
[3] = molecular target: T2, δ receptor (Rattus norvegicus, UniProt P33533); assay: δ receptor radioligand binding assay with [3H]DPDPE, rat brain membranes; conditions: read-out: inhibition of the radioligand binding, δ Receptor
T2 construct: The thawed rat brain membrane preparation (about 75 μg of the protein) was incubated; tissue Harlan-Winkelmann, Borchen, Germany; host or cells: rat brain membrane homogenate
T2 sequence (P33533 whole entry): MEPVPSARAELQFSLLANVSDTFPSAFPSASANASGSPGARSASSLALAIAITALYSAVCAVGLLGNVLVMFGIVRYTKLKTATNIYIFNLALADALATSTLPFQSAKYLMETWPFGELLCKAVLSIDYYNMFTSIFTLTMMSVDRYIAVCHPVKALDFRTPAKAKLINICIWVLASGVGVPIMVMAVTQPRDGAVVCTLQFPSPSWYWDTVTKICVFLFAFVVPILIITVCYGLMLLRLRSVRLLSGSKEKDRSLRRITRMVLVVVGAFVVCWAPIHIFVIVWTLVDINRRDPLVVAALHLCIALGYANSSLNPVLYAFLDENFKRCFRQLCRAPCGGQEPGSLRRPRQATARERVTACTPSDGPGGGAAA

[4] = molecular target: T3, σ1 receptor (Cavia porcellus, UniProt Q60492); assay: σ1 receptor radioligand binding assay with [3H]-(+)-pentazocine, guinea pig brain membranes; conditions: read-out: Ki ± SEM σ1 Receptor
T3 sequence (Q60492 whole entry): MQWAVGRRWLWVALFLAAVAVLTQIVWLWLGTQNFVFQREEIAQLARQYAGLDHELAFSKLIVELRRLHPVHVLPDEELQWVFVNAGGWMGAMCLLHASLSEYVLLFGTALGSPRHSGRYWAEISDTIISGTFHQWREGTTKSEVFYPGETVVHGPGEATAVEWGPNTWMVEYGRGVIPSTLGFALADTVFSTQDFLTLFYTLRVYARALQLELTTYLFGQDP

[5] = molecular target: T4, σ2 receptor (Rattus norvegicus, UniProt Q5U3Y7); assay: biochemical; conditions: read-out: inhibition of the radioligand binding, σ2 Receptor
T4 construct: The thawed rat liver membrane preparation; tissue Harlan-Winkelmann, Borchen, Germany; host or cells: rat liver membrane homogenate
T4 sequence (Q5U3Y7 1-176): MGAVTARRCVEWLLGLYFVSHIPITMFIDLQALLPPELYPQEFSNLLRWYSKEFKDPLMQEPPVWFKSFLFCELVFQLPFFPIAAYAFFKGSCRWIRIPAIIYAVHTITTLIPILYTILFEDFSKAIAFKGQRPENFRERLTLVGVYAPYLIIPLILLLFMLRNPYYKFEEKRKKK

[6] = mouse, microsomes, 1.5 h
[7] = physchem; conditions: pH 7.4
[8] = molecular target: human serum albumin (Homo sapiens, UniProt P02768); assay: in vitro; conditions: plasma
Sequence of human serum albumin (P02768 25-609): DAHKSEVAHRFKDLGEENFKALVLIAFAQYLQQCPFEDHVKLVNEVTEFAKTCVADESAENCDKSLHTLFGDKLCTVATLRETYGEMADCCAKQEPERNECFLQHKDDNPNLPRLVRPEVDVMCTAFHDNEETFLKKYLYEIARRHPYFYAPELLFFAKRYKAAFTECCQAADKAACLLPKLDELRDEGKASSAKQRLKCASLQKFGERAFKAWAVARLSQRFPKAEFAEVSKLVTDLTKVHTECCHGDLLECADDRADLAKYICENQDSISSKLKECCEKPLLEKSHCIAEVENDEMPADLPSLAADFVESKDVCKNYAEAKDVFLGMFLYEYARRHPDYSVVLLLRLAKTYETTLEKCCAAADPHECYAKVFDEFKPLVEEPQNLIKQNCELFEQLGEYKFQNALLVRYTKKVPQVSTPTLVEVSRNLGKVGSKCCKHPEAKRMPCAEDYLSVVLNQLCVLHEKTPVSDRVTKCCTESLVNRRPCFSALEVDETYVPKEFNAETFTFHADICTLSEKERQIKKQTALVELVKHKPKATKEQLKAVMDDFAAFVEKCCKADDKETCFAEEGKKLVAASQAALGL

[9] = molecular target: T1, μ receptor; design: method as in PMID 25062506; conditions: [3H]DAMGO, guinea pig brain membranes; cited from earlier work
[10] = molecular target: T2, δ receptor; design: method as in PMID 25062506; conditions: test compound 1 μM, [3H]DPDPE, rat brain membranes; cited from earlier work
[11] = molecular target: T3, σ1 receptor; conditions: [3H]-(+)-pentazocine, guinea pig brain membranes; cited from earlier work
[12] = molecular target: T4, σ2 receptor; conditions: read-out: Ki σ2 Receptor; [3H]DTG, rat liver membranes; cited from earlier work

Sequence of κ receptor (P41144 whole entry): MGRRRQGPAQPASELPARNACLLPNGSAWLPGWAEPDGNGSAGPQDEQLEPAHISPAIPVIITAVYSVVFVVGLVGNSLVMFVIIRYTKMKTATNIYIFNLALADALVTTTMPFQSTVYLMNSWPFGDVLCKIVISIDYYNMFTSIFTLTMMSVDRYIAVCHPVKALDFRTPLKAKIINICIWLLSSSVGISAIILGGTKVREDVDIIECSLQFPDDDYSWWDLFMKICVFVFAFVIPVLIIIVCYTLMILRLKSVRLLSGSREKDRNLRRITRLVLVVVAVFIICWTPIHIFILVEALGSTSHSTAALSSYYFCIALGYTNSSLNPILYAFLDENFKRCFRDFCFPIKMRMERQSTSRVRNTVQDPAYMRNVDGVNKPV
T1 sequence (A0ACM8Q262 1-400): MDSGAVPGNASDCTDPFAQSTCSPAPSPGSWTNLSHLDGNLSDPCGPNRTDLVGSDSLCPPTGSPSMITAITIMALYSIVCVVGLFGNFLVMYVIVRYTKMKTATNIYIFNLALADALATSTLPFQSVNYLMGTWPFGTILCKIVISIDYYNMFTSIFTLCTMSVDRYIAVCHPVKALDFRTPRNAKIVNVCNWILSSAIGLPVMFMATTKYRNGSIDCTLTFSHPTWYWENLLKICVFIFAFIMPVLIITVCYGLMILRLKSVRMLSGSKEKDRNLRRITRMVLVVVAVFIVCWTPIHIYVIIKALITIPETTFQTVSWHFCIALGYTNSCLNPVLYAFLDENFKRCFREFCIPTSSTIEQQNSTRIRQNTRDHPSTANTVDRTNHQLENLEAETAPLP

With `O=C(Cc1ccc(Cl)c(Cl)c1)N1CCN(Cc2ccccc2)[C@@H]2C[C@@H](O)C[C@H](N3CCCC3)[C@H]21` (racemic) [compound 14, 1-[(4aRS,6SR,8SR,8aRS)-4-Benzyl-6-hydroxy-8-(pyrrolidin-1-yl)decahydro-quinoxalin-1-yl]-2-(3,4-dichlorophenyl)ethan-1-one] the “selectivity for κ receptor over μ, δ, σ1 and σ2 receptors” value [1] was “high selectivity”, the Ki ([1]; [3H]U-69,593, guinea pig brain membranes, with SEM n = 3, without SEM one experiment) was 599 ± 217 nM and the inhibition at 1 µM ([2]; read-out: inhibition of the radioligand binding, μ Receptor) was 0%. For the same compound, the inhibition at 1 µM [3] was 11%, the Ki [4] was 7900 nM and the inhibition at 1 µM [5] was 0%. The “compound remaining unchanged (metabolic stability)” value [6] was 92 ± 1%, the logD [7] was 1.72 ± 0.05 and the fraction unbound [8] was 0.075.
For [3H]-DAMGO [reference compound], the Kd ([2]; guinea pig brain membrane preparation) was 0.57 nM.
In the case of `O=C(Cc1ccc(Cl)c(Cl)c1)N1CCN(Cc2ccccc2)C2CCCC(N3CCCC3)C21` (centres unmarked) [2a], the Ki [9] is listed as 3900 nM, the “inhibition of the radioligand binding, δ Receptor” value [10] is listed as 39% and the Ki [11] is listed as 1390 nM. For the same compound, the Ki [12] was 4390 nM.
In the case of `CC(C)(C)[Si](C)(C)O[C@@H]1C[C@@H]2[C@@H]([C@@H](N3CCCC3)C1)N(C(=O)Cc1ccc(Cl)c(Cl)c1)CCN2Cc1ccccc1` (racemic) [compound 13, 1-[(4aRS,6SR,8SR,8aRS)-4-Benzyl-6-(tert-butyldimethylsilyloxy)-8-(pyrrolidin-1-yl)-decahydroquinoxalin-1-yl]-2-(3,4-dichlorophenyl)ethan-1-one], the inhibition at 1 µM ([1]; read-out: inhibition of the radioligand binding, κ Receptor) is reported as 0%, the Ki [4] is reported as 487 nM and the inhibition at 1 µM [5] is reported as 7%.

Source: PMC11817610, “Stereoselective Synthesis and Biological Evaluation of Perhydroquinoxaline-Based κ Receptor Agonists” (International Journal of Molecular Sciences, 2025)
